SMILES strings stand for the structures.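 Tested at 5 concentrations; 48 h exposure; 96-well plates; endpoints linearly interpolated, else capped at highest concentration. Abbreviation: GI50, concentration required for 50% inhibition of growth. Definition used: TGI = concentration required for complete inhibition of growth.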

Test systems include HOP-18 NSCLC; LXFL 529 NSCLC; COLO 205 colon; XF 498 CNS; HCT-15 colon; SF-539 CNS; KM20L2 colon; M19-MEL melanoma; UACC-257 melanoma; DMS 273 small cell lung; MDA-MB-435; MDA-N; HS 578T breast.
Test in all cases: inhibition of tumour cell growth, NCI panel, 48 h

With `C1=Nc2ccccc2Cn2nncc21`, the TGI in the test on HOP-18 NSCLC, in the test with LXFL 529 NSCLC, with COLO 205 colon, in the test on XF 498 CNS, with HCT-15 colon and in the test with SF-539 CNS was greater than 100 µM throughout. Moreover, the TGI with KM20L2 colon and with M19-MEL melanoma was greater than 100 µM in each case.

As for `OC(c1ccccc1)C1CC2C=CC1C2` (stereo not drawn), the TGI with LXFL 529 NSCLC, in the test on COLO 205 colon, with UACC-257 melanoma, in the test with XF 498 CNS, in the test on HCT-15 colon and in the test with SF-539 CNS was greater than 100 µM in each case. In addition, the TGI in the test with DMS 273 small cell lung and in the test with M19-MEL melanoma was greater than 100 µM in each case.

In the case of `O=c1ccc2c(Cl)cccc2o1`, the TGI in the test on MDA-MB-435, with COLO 205 colon, with UACC-257 melanoma, in the test on MDA-N, with SF-539 CNS and in the test with HS 578T breast was greater than 100 µM in each case.

Take `CCN(CC)CCCC(C)Nc1c2ccc(Cl)cc2nc2cc(Cl)ccc12` (stereo not drawn): the TGI in the test on HOP-18 NSCLC was 18.1 µM; in the test with COLO 205 colon it was 5.01 µM; with UACC-257 melanoma, 8.87 µM; in the test with XF 498 CNS, 9.64 µM; with HCT-15 colon, 9.85 µM; in the test on SF-539 CNS it was 15.6 µM. The TGI with DMS 273 small cell lung is 10.3 µM; in the test on KM20L2 colon, 11.6 µM; in the test on M19-MEL melanoma it was 9.97 µM.

As to `Clc1ccc(C2CC(c3cccc(Nc4ccncc4)c3)=NN2c2ccccc2)cc1` (stereo not drawn), the GI50 in the test on MDA-MB-435 is 1.62 µM; in the test with COLO 205 colon, 1.96 µM; with UACC-257 melanoma, 1.8 µM; in the test on HCT-15 colon, 1420 nM; with SF-539 CNS it was 1.7 µM. Besides, the TGI came out at 3.07 µM in the test on MDA-MB-435; 4.5 µM in the test on COLO 205 colon; 3.83 µM with UACC-257 melanoma; 2.83 µM in the test on HCT-15 colon; 3.09 µM in the test on SF-539 CNS.

`CC(C(=O)NCCNC(=O)CCCC(=O)N(C)O)C(=O)NCCNC(=O)CCCC(=O)N(C)O`: the TGI with MDA-MB-435, in the test on COLO 205 colon, in the test on UACC-257 melanoma, with MDA-N, with HCT-15 colon and in the test with HS 578T breast was greater than 100 µM in each case.

`COc1ccc(N2C(=O)C(=O)N(C)C2=O)c2ccccc12`: the TGI with MDA-MB-435, in the test with COLO 205 colon, in the test with HCT-15 colon, in the test with SF-539 CNS and in the test on HS 578T breast was greater than 10 µM in each case.

In the case of `CSC1=C(SC)C(=O)c2cn(C)c(=O)cc2C1=O`, the TGI with MDA-MB-435 stood at 3.35 µM; with COLO 205 colon it was 2.89 µM; in the test with UACC-257 melanoma it was 7.05 µM; in the test with MDA-N, 3.06 µM; with HCT-15 colon it was 4.78 µM; in the test with SF-539 CNS, 25.3 µM. The molecule also yielded a TGI in the test with HS 578T breast greater than 26.5 µM.

On to `Fc1ccc(Nc2ncc(-c3cc(F)c(Cl)cc3Cl)s2)cc1Cl`, for which the GI50 with MDA-MB-435 was 15.4 µM; in the test on COLO 205 colon it was 28.5 µM; in the test with UACC-257 melanoma, 14.3 µM; with HCT-15 colon, 3440 nM; in the test with SF-539 CNS it was 10.5 µM; with HS 578T breast it was 11.5 µM. The TGI in the test with MDA-MB-435 was 32.5 µM; with COLO 205 colon, greater than 100 µM; in the test on UACC-257 melanoma, 29.2 µM; in the test on HCT-15 colon it was greater than 100 µM; in the test on SF-539 CNS, 32.5 µM; with HS 578T breast, 36.4 µM.

Turning to `CC1(CO)C(O)CCC2(C)C1C(O)CC1CC3CC12CCC3(O)CO` (stereo not drawn), the TGI in the test with HOP-18 NSCLC, in the test with COLO 205 colon, with UACC-257 melanoma, in the test on XF 498 CNS, in the test with HCT-15 colon and in the test on SF-539 CNS was greater than 225 µM each time. The TGI is greater than 199 µM in the test with DMS 273 small cell lung, greater than 225 µM in the test on KM20L2 colon and greater than 153 µM with M19-MEL melanoma.

Turning to `COC1=CC(=O)c2c(c(COC(C)=O)cn2C)C1=O`, the TGI in the test with MDA-MB-435 came to 0.28 µM; with COLO 205 colon it was 0.0943 µM; in the test on UACC-257 melanoma it was 1.43 µM; in the test on MDA-N, 0.253 µM; in the test with HCT-15 colon it was 0.0522 µM; with SF-539 CNS, 0.313 µM.

Regarding `CC(C)NC(=O)OCc1nnn2c1CCC2`, the TGI with LXFL 529 NSCLC, in the test with UACC-257 melanoma, in the test on XF 498 CNS, in the test on HCT-15 colon, with SF-539 CNS and with KM20L2 colon was greater than 100 µM in each case. This molecule showed a TGI with M19-MEL melanoma greater than 100 µM.

Source of the values: PubChem BioAssay (NCI).
